The record followed here is patent US20260207621A1 (Vividion Therapeutics, Inc., priority 2022, published 2026).

This experiment has as its system Nrf2. Nature of the experiment: Nrf2 antagonism assay: ARE luciferase reporter in KYSE-70 cells. The experiment is classed as cell-based. The conditions noted are these: Homo sapiens, KYSE-70, KYSE-70 cells, positive Imax corresponds to Nrf2 antagonism, read-out: KYSE70 Cellular ARE Luciferase Imax (%). The source says:
NRF2 binds to a promoter region, antioxidant response element (ARE), to initiate expression of multiple genes. ARE luciferase reporter assays are used to test whether a ligand can activate or repress the expression of target genes using luciferase as a reporter gene.
KYSE-70 is an esophageal squamous cell carcinoma cell line with a Nrf2 mutation at amino acid position W24C. This mutation lowers the affinity between the E3 ligase that includes KEAP1 and Nrf2, resulting in a state in which the synthesis rate of new Nrf2 is faster than the E3's degradation rate of Nrf2, resulting in a “Nrf2 high” state. In KYSE-70 cells, genes are inserted directly after the ARE that trigger the expression of luciferase. Without a NRF2 antagonist in this modified KYSE70 cell line which has an inherently “NRF2 high state”, luciferase is expressed, and a signal is observed.
Nrf2 antagonists bind at C151 of KEAP1 and stabilize the E3 which results in an increased degradation rate of Nrf2. Increased degradation of Nrf2 results in less expression of luciferase, and therefore a less intense signal.
An IC50 is generated from the dose-response curve and an Imax. A positive Imax corresponds to Nrf2 antagonism. Imax >90% correlates with in vivo tumor grown inhibition. Compounds with Imax >50% were included in this description.
Consider `C=CC(=O)N1CC2(CC2)OCC1c1cc(Cl)cc(-c2ncnc(N)n2)c1` (single isomer, unassigned) [Compound 153, 1-(6-(3-(4-amino-1,3,5-triazin-2-y1)-5-chlorophenyl)-4-oxa-7-azaspiro[2.5]octan-7-yl)prop-2-en-1-one], for which the Emax was 94%.
For `C=CC(=O)N1CCOC[C@H]1c1cc(Cl)cc(-c2cnn(C3CC3)c2)c1` (single isomer, unassigned) [Compound 115] the value was 74%; for `C=CC(=O)N1[C@H](c2cc(Cl)nc(-c3ccn4ccnc4c3)c2)COC[C@H]1C(F)F` (single isomer, unassigned) [Compound 194], 84%.
The result for `C=CC(=O)N1CCOC[C@H]1c1cc(Cl)cc(-c2ncnc(NCCO)n2)c1` (single isomer, unassigned) [Compound 219] reads 81%.
The result for `C=CC(=O)N1CCOCC1c1cc(Cl)cc(-c2ccn3cc(C)nc3c2)c1` (single isomer, unassigned) [Compound 57, 1-(3-(3-chloro-5-(2-methylimidazo[1,2-a]pyridin-7-yl)phenyl)morpholino)prop-2-en-1-one] reads 84%; that for `C=CC(=O)N1CCOCC1(C)c1cc(Cl)cc(-c2ccnc(N)n2)c1` (single isomer, unassigned) [Compound 113, 1-(3-(3-(2-aminopyrimidin-4-yl)-5-chlorophenyl)-3-methylmorpholino)prop-2-en-1-one], 94%.
As for `C=CC(=O)N1CCN(C(=O)C2CC2)C[C@H]1c1cc(Cl)cc(-c2ncc(N)cn2)c1` (single isomer, unassigned) [Compound 200], the Emax turned out to be 91%.
For `C=CC(=O)N1CCOC[C@H]1c1cc(Cl)cc(-c2c[nH]c(=O)[nH]2)c1` (single isomer, unassigned) [Compound 184] the value was 72%.
Take `C=CC(=O)N1CCOCC1c1cc(Cl)cc(-c2ccnc(C(N)=O)c2)c1` (single isomer, unassigned) [Compound 75, 4-(3-(4-acryloylmorpholin-3-y1)-5-chlorophenyl)picolinamide]: the Emax is 92%.
Regarding `C=CC(=O)N1[C@H](c2cc(Cl)nc(-c3cc(N)ncn3)c2)COC[C@H]1C(F)F` (single isomer, unassigned) [Compound 202], the Emax was 94%.
The result for `C=CC(=O)N1[C@H](C)COC[C@H]1c1cc(Cl)cc(-c2ccnc(N)n2)c1` (single isomer, unassigned) [Compound 110] reads 93%.
For `C=CC(=O)N1CCN(C(=O)CC#N)C[C@H]1c1cc(Cl)cc(-c2ccnc(N)n2)c1` (single isomer, unassigned) [Compound 186] the value was 83%; for `C=CC(=O)N1[C@H](C)COC[C@H]1c1cc(Cl)nc(-c2ccnc(C)n2)c1` (single isomer, unassigned) [Compound 142], 81%.
For `C=CC(=O)N1CCN(C(=O)C2CC2)C[C@H]1c1cc(Cl)cc(-c2ccc(F)c(C(N)=O)c2)c1` (single isomer, unassigned) [Compound 195] the value was 90%; for `C=CC(=O)N1CCOC[C@H]1c1cc(Cl)cc(-n2cc(C)cn2)c1` (single isomer, unassigned) [Compound 118], 63%.
With `C=CC(=O)N1CC(C)(C)OCC1c1cc(Cl)nc(-c2ccnc(N)n2)c1` (single isomer, unassigned) [Compound 99, 1-(5-(2-(2-aminopyrimidin-4-yl)-6-chloropyridin-4-y1)-2,2-dimethylmorpholino)prop-2-en-1-one], the Emax stood at 82%.
For `C=CC(=O)N1[C@H](C)COC[C@H]1c1cc(Cl)cc(-c2ccc(F)c(C(N)=O)c2)c1` (single isomer, unassigned) [Compound 108] the value was 70%; for `C=CC(=O)N1CCOC[C@H]1c1cc(Cl)cc(-c2cnnc(N)c2)c1` (single isomer, unassigned) [Compound 141], 89%.
`C=CC(=O)N1[C@H](C)COC[C@H]1c1cc(Cl)cc(-c2ccn(C)c(=O)c2)c1` (single isomer, unassigned) [Compound 24]: the Emax amounted to 73%.
For `C=CC(=O)N1CCOCC1c1cc(Cl)nc(-c2ncnc(N)n2)c1` (single isomer, unassigned) [Compound 146, 1-(3-(2-(4-amino-1,3,5-triazin-2-yl)-6-chloropyridin-4-yl)morpholino)prop-2-en-1-one] the value was 71%; for `C=CC(=O)N1CC2(CC2)OCC1(C)c1cc(Cl)cc(-c2ncnc(N)n2)c1` (single isomer, unassigned) [Compound 160, 1-(6-(3-(4-amino-1,3,5-triazin-2-yl)-5-chlorophenyl)-6-methyl-4-oxa-7-azaspiro[2.5]octan-7-yl)prop-2-en-1-one], 91%.
In the case of `C=CC(=O)N1CCN(S(C)(=O)=O)C[C@H]1c1cc(Cl)cc(-c2nnn(C)n2)c1` (single isomer, unassigned) [Compound 21], the Emax was 54%.
As for `C=C(F)C(=O)N1CCOC[C@H]1c1cc(Cl)cc(-c2ncnc(N)n2)c1` (single isomer, unassigned) [Compound 297], the Emax was determined as 58%.
For `C=CC(=O)N1CCOC[C@H]1c1cc(Cl)cc(-c2ncnc(N)n2)c1` (single isomer, unassigned) [Compound 55] the value was 93%; for `C=CC(=O)N1CCOCC1c1cc(Cl)nc(-c2ccn(C)c(=O)c2)c1` (single isomer, unassigned) [Compound 25, 4-(4-acryloylmorpholin-3-yl)-6-chloro-1′-methyl-[2,4′-bipyridin]-2′(1′H)-one], 86%.
For `C=CC(=O)N1CCN(C(C)=O)C[C@H]1c1cc(Cl)cc(-c2nnn(C)n2)c1` (single isomer, unassigned) [Compound 22] the value was 64%.
For `C=CC(=O)N1CCN(C(=O)C2CC2)C[C@H]1c1cc(Cl)cc(-c2nccc(N)n2)c1` (single isomer, unassigned) [Compound 196] the value was 90%; for `C=CC(=O)N1CCOCC1(C)c1cc(Cl)cc(-c2ccc(F)c(C(N)=O)c2)c1` (single isomer, unassigned) [Compound 114, 3′-(4-acryloyl-3-methylmorpholin-3-yl)-5′-chloro-4-fluoro-[1,1′-biphenyl]-3-carboxamide], 87%; for `C=CC(=O)N1CCOCC1c1cc(Cl)cc(-c2cnnc(OC)c2)c1` (single isomer, unassigned) [Compound 56, 1-(3-(3-chloro-5-(6-methoxypyridazin-4-yl)phenyl)morpholino)prop-2-en-1-one], 74%.
As to `C=CC(=O)N1C[C@@H](F)COC[C@H]1c1cc(Cl)nc(-c2cc(N)ncn2)c1` [Compound 198, 1-((3R,6R)-3-(2-(6-aminopyrimidin-4-yl)-6-chloropyridin-4-yl)-6-fluoro-1,4-oxazepan-4-yl)prop-2-en-1-one], the Emax is 93%.
As for `C=CC(=O)N1CCN(C(=O)C2CC2)C[C@H]1c1cc(Cl)cc(-c2cc(N)ncn2)c1` (single isomer, unassigned) [Compound 197], the Emax came to 87%.
For `C=CC(=O)N1[C@H](C)COC[C@H]1c1cc(Cl)cc(-c2ncccn2)c1` (single isomer, unassigned) [Compound 20] the value was 67%; for `Nc1ncnc(-c2cc(Cl)cc([C@@H]3COCCN3C(=O)C=C3CC3)c2)n1` (single isomer, unassigned) [Compound 293], 54%.
The result for `C=CC(=O)N1CCOCC1c1cc(Cl)nc(-c2cc(N)ncn2)c1` (single isomer, unassigned) [Compound 119, 1-(3-(2-(6-aminopyrimidin-4-yl)-6-chloropyridin-4-yl)morpholino)prop-2-en-1-one] reads 96%.
For `C=CC(=O)N1CC2(CC2)OCC1c1cc(Cl)cc(-c2cc(N)ncn2)c1` (single isomer, unassigned) [Compound 140, 1-(6-(3-(6-aminopyrimidin-4-yl)-5-chlorophenyl)-4-oxa-7-azaspiro[2.5]octan-7-yl)prop-2-en-1-one] the value was 72%.
As for `C=CC(=O)N1[C@H](C)COC[C@H]1c1cc(Cl)cc(-c2ccnc(C)n2)c1` (single isomer, unassigned) [Compound 109], the Emax is 91%.
`C=CC(=O)N1CCOCC1c1cc(Cl)cc(-c2cncc(C)n2)c1` (single isomer, unassigned) [Compound 59, 1-(3-(3-chloro-5-(6-methylpyrazin-2-yl)phenyl)morpholino)prop-2-en-1-one]: the Emax came to 81%.
In the case of `C=CC(=O)N1CCN(C(=O)CC#N)C[C@H]1c1cc(Cl)cc(-c2ccnc(NC(=O)CC#N)n2)c1` (single isomer, unassigned) [Compound 189], the Emax was determined as 79%.
The result for `C=CC(=O)N1CCOCC1c1cc(Cl)nc(-c2nnn(C)n2)c1` (single isomer, unassigned) [Compound 23, 1-(3-(2-chloro-6-(2-methyl-2H-tetrazol-5-yl)pyridin-4-yl)morpholino)prop-2-en-1-one] reads 55%; that for `C=CC(=O)N1CCOCC1c1cc(Cl)nc(-c2ccnnc2)c1` (single isomer, unassigned) [Compound 30, 1-(3-(2-chloro-6-(pyridazin-4-yl)pyridin-4-yl)morpholino)prop-2-en-1-one], 72%.
As for `C=CC(=O)N1CCOC[C@H]1c1cc(Cl)cc(-c2cnn(C)c2)c1` (single isomer, unassigned) [Compound 116], the Emax worked out at 84%.
